Tests used:
[1] = test system: EntF*-mediated E-cadherin downregulation in HCT-8 cells; experiment: Antagonist activity analysis by Western blot; assay type: cell-based
Experimental: (§1) HCT-8, HT-29, and HT-116 cells were grown in DMEM medium supplied with 10% fetal bovine serum (FBS) and 1% penicillin-streptomycin. Caco-2 cells were grown in DMEM medium supplied with 10% FBS, 1% non-essential amino acid NEAA), and 1% penicillin-streptomycin. Cells were cultured at 37 °C and 5% CO2. As cells reached confluency, they were detached using 0.25% Trypsin-EDTA.
For Western blot analyses, HCT-8 (n = 15), HCT-116 (n = 12), Caco-2 (n = 6), and HT-29 (n = 12) cells were seeded in 6-well plates at a density of 1 × 10^6 cells/well. Twenty-four hours after seeding, all cell lines were treated with 1 μM EntF* or a placebo solution. HCT-8 cells were also tested for responsiveness to 1 μM EntF* synthetic alanine-derived analogs. For antagonist activity analysis, HCT-8 cells were treated with 1 μM Nef-M1 or 1 μM EntF*A1 alone or in combination with 500 nM EntF*. After 24 h, cells were detached from the surface and lysed in RIPA buffer (Thermo Scientific). Protein concentration was determined using the modified Lowry protein assay kit (Thermo Scientific), according to the manufacturer’s instructions. […]
The Kolmogorov-Smirnov test was used to assess if data obtained were normally distributed. […] Cohen’s d values were calculated as a measure of the effect size when similar standard deviations for both groups were found, and sample sizes were the same.

[2] = test system: E-cadherin expression in HCT-8 cells; experiment: Western blot of E-cadherin expression, HCT-8 cells (EntF*, alanine and D-amino acid analogs); assay type: cell-based
Experimental: as §1
For Western blot analyses, HCT-8 (n = 15), HCT-116 (n = 12), Caco-2 (n = 6), and HT-29 (n = 12) cells were seeded in 6-well plates at a density of 1 × 10^6 cells/well. Twenty-four hours after seeding, all cell lines were treated with 1 μM EntF* or a placebo solution. HCT-8 cells were also tested for responsiveness to 1 μM EntF* synthetic alanine-derived analogs. For antagonist activity analysis, HCT-8 cells were treated with 1 μM Nef-M1 or 1 μM EntF*A1 alone or in combination with 500 nM EntF*. After 24 h, cells were detached from the surface and lysed in RIPA buffer (Thermo Scientific). Protein concentration was determined using the modified Lowry protein assay kit (Thermo Scientific), according to the manufacturer’s instructions. Protein samples were diluted to the same concentration (4 μg/μL) with water and diluted again 1:1 using 2x Laemmli buffer. After that, samples were boiled for 5 min at 95 °C to denature proteins and centrifuged for 5 min at 16,000g; supernatants were used for Western blot analyses. Equal amounts of total protein (20 μg/lane) were separated by SDS-PAGE on an Any kD^TM gel (Bio-Rad ) and then transferred to a PVDF membrane. Before incubation with antibodies, non-specific binding sites on the membranes were blocked using 5% skimmed milk solution (1 h). TBS buffer with 0.05% Tween 20 was used for all washing steps. Membranes were incubated overnight at 4 °C with an anti-E-cadherin primary antibody (1/1000 dilution). An HRP-conjugated anti-rabbit antibody (1/2000 dilution, 1 h incubation) was used for chemiluminescent detection. Membranes were incubated with the detection substrate for 5 min and signal detection was performed using the ChemiDoc EZ imager and Image Lab software (Bio-Rad). Signal intensity was normalized against the total protein content in each lanes.
A quantitative approach was used to evaluate the importance of each amino acid, where the Fisher’s LSD p-values of (1) multiple comparisons between EntF* and the alanine (ALA) scan and (2) multiple comparisons between different peptides of the ALA scan are combined. Subsequently, based on the combined P-score, the amino acids were classified in 5 classes using a hierarchical cluster analysis and confirmed using the Jenks natural breaks algorithm with K = 5. CombinedPscore=1-PPBSvsALAscan*PEntF*vsALAscan

With CC(C)C[C@@H]1NC(=O)[C@H](CO)NC(=O)[C@H](Cc2ccccc2)NC(=O)[C@H](C(C)C)NC(=O)[C@@H](NC(=O)[C@H](CCC(=O)O)NC(=O)[C@@H](NC(=O)[C@H](CC(C)C)NC(=O)[C@H](CC(N)=O)NC(=O)[C@@H](N)CO)C(C)C)CSSC[C@@H](C(=O)N[C@@H](CC(N)=O)C(=O)O)NC(=O)[C@H](CCCCN)NC(=O)[C@H](CCCCN)NC(=O)[C@H](Cc2ccccc2)NC1=O (single isomer, unassigned) [EntF*] as the compound, how does the “E-cadherin level, EntF* only” value ([1]; HCT-8 cells, EntF* only, 24 h, relative to control, n = 15) read?
The value was 62%.

And the “Relative E-cadherin level (% of control), mean” value ([1]; mean of the replicates)?
The value was 62.0.

And the “effect on E-cadherin levels in HCT-8 cells” value ([2]; 24 h, n = 15)?
Its value is “significant decrease”.

And the “Relative E-cadherin decrease” value ([2]; Ala-scan sheet, Blot 19 (single blot), chemiluminescence band, placebo lane = 100)?
Its value is 54.8007.

And the “E-cadherin expression relative to H2O control (= 100)” value ([2]; Ala-scan sheet, Blot 20 (single blot), chemiluminescence band, placebo lane = 100)?
Its value is 67.4208.

What about the “Relative E-cadherin decrease” value ([2]; Ala-scan sheet, Blot 21 (single blot), chemiluminescence band, placebo lane = 100) of the same compound?
Its value is 65.0177.

What about the “E-cadherin expression relative to H2O control (= 100)” value ([2]; Ala-scan sheet, Blot 24 (single blot), chemiluminescence band, Norm. Vol. relative to placebo lane = 100) of the same compound?
Its value is 28.5.

What about the “E-cadherin expression relative to H2O control (= 100)” value ([2]; Ala-scan sheet, Blot 25 (single blot), chemiluminescence band, Norm. Vol. relative to placebo lane = 100) of the same compound?
Its value is 21.0.

And the “E-cadherin expression relative to H2O control (= 100)” value ([2]; Ala-scan sheet, Blot 26 (single blot), chemiluminescence band, Norm. Vol. relative to placebo lane = 100)?
The value was 35.9.

What about the “E-cadherin expression relative to H2O control (= 100)” value ([2]; Ala-scan sheet, Blot 27 (single blot), chemiluminescence band, Norm. Vol. relative to placebo lane = 100) of the same compound?
The value was 217.9.

What about the “E-cadherin expression relative to H2O control (= 100)” value ([2]; Ala-scan, Blot 11 (single blot replicate), normalized band volume relative to Placebo = 100.0) of the same compound?
Its value is 93.8.

What about the “E-cadherin expression relative to H2O control (= 100)” value ([2]; Ala-scan, Blot 12 (single blot replicate), normalized band volume relative to Placebo = 100.0) of the same compound?
Its value is 85.9.

What about the “E-cadherin expression relative to H2O control (= 100)” value ([2]; Ala-scan, Blot 13 (single blot replicate), normalized band volume relative to Placebo = 100.0) of the same compound?
The value was 94.6.

And the “E-cadherin expression relative to H2O control (= 100)” value ([2]; Ala-scan, Blot 14 (single blot replicate), normalized band volume relative to Placebo = 100.0)?
The value was 84.9.

And the “E-cadherin expression relative to H2O control (= 100)” value ([2]; Ala-scan, Blot 18 (single blot replicate), normalized band volume relative to Placebo = 100.0)?
Its value is 74.8.

And the “E-cadherin expression relative to H2O control (= 100)” value ([2]; D-scan, Blot 1 (replicate), Norm. Vol. relative to H2O lane = 100.0, chemiluminescence)?
Its value is 92.9.

And the “E-cadherin expression relative to H2O control (= 100)” value ([2]; D-scan, Blot 2 (replicate), Norm. Vol. relative to H2O lane = 100.0, chemiluminescence)?
Its value is 90.1.

What about the “E-cadherin expression relative to H2O control (= 100)” value ([2]; D-scan, Blot 3 (replicate), Norm. Vol. relative to H2O lane = 100.0, chemiluminescence) of the same compound?
The value was 85.4.

What about the “E-cadherin expression relative to H2O control (= 100)” value ([2]; D-scan, Blot 4 (replicate), Norm. Vol. relative to H2O lane = 100.0, chemiluminescence) of the same compound?
The value was 88.3.

What about the “E-cadherin expression relative to H2O control (= 100)” value ([2]; D-scan, Blot 6 (replicate), Norm. Vol. relative to H2O lane = 100.0, chemiluminescence) of the same compound?
The value was 95.4.

What about the “E-cadherin expression relative to H2O control (= 100)” value ([2]; D-scan, Blot 7 (replicate), Norm. Vol. relative to H2O lane = 100.0, chemiluminescence) of the same compound?
Its value is 92.1.

And the “E-cadherin expression relative to H2O control (= 100)” value ([2]; D-scan, Blot 8 (replicate), Norm. Vol. relative to H2O lane = 100.0, chemiluminescence)?
Its value is 99.2.

What about the “E-cadherin expression relative to H2O control (= 100)” value ([2]; D-scan, Blot 9 (replicate), Norm. Vol. relative to H2O lane = 100.0, chemiluminescence) of the same compound?
Its value is 67.6.

And the “E-cadherin expression relative to H2O control (= 100)” value ([2]; D-scan, Blot 10 (replicate), Norm. Vol. relative to H2O lane = 100.0, chemiluminescence)?
The value was 83.3.

What about the “E-cadherin expression relative to H2O control (= 100)” value ([2]; D-scan, Blot 11 (replicate), Norm. Vol. relative to H2O lane = 100.0, chemiluminescence) of the same compound?
Its value is 74.5.

What about the “E-cadherin expression relative to H2O control (= 100)” value ([2]; D-scan, Blot 12 (replicate), Norm. Vol. relative to H2O lane = 100.0, chemiluminescence) of the same compound?
The value was 74.5.

What about the “E-cadherin expression relative to H2O control (= 100)” value ([2]; H2O = 100.0, CXCL12 at 10µg/ml, mean of the replicates (row r47, unlabelled; SEM in row below)) of the same compound?
Its value is 85.8.

What about the “E-cadherin expression relative to H2O control (= 100)” value ([2]; H2O = 100.0, CXCL12 at 10µg/ml, replicate 1 (row r35)) of the same compound?
The value was 92.9.

What about the “E-cadherin expression relative to H2O control (= 100)” value ([2]; H2O = 100.0, CXCL12 at 10µg/ml, replicate 2 (row r36)) of the same compound?
The value was 90.1.

And the “E-cadherin expression relative to H2O control (= 100)” value ([2]; H2O = 100.0, CXCL12 at 10µg/ml, replicate 3 (row r37))?
Its value is 85.4.

What about the “E-cadherin expression relative to H2O control (= 100)” value ([2]; H2O = 100.0, CXCL12 at 10µg/ml, replicate 4 (row r38)) of the same compound?
The value was 88.3.

And the “Ala scan: Relative E-cadherin decrease” value ([2]; H2O = 100.0, mean of the replicates (row r29, unlabelled; SEM in row below))?
Its value is 62.0.

What about the “E-cadherin expression relative to H2O control (= 100)” value ([2]; H2O = 100.0, replicate 5 (row r39)) of the same compound?
Its value is 95.4.

What about the “E-cadherin expression relative to H2O control (= 100)” value ([2]; H2O = 100.0, replicate 6 (row r40)) of the same compound?
The value was 92.1.

What about the “E-cadherin expression relative to H2O control (= 100)” value ([2]; H2O = 100.0, replicate 7 (row r41)) of the same compound?
The value was 99.2.

And the “E-cadherin expression relative to H2O control (= 100)” value ([2]; H2O = 100.0, replicate 8 (row r42))?
The value was 67.6.

And the “E-cadherin expression relative to H2O control (= 100)” value ([2]; H2O = 100.0, replicate 9 (row r43))?
The value was 83.3.

What about the “E-cadherin expression relative to H2O control (= 100)” value ([2]; H2O = 100.0, replicate 10 (row r44)) of the same compound?
The value was 74.5.

What about the “E-cadherin expression relative to H2O control (= 100)” value ([2]; H2O = 100.0, replicate 11 (row r45)) of the same compound?
The value was 74.5.

What about the “Relative E-cadherin decrease in different cell lines, Average” value ([2]; HCT-8 cells, average (EntF* n = 15, CXCL12 n = 4)) of the same compound?
Its value is 62.0.
